The values that follow come from patent US20100111965A1, “COMBINATION THERAPY” (FUSION ANTIBODIES LIMITED, priority 2006, published 2010).

Common to all, as to format: cell-based, human
The subject of assay [1] is RKO +/+. Nature of the assay: Semi quantitative RT-PCR of AREG RNA in RKO cells after chemotherapy. To be noted: 48 h after treatment, 7.5 μM. Here is the method:
FIG. 1A illustrates analysis of AREG and beta actin RNA expression in RKO +/+ with/without either a 48 hour CPT11 treatment or 5-Fu treatment. RNA levels were analyzed following 35 cycle of PCR to determine relative differences in expression between treated and untreated samples;
Cells in a log phase of growth were seeded into T75 flask at ˜20% confluence and incubated overnight to allow adherence to the plate. […] Chemotherapy was substituted with saline in control flasks. After different time exposure to chemotherapy the cells were harvested, washed 3 times in PBS and total RNA was isolated using the RNA TAT-60 reagent according to the manufacturer instructions.
Reverse transcription was performed with 2.5 μg of RNA using a High Capacity cDNA Archive kit (Applied Biosystem) according to the instruction of the manufacturer.
Semi quantitative RT-PCR was performed using a PTC 225 Gradient Cycler (MJ Research Incorporated. The PCR mixture, in a final volume of 25 μL, contains 12.5 μL of 2× Biomix (Bioline, UK), 2 μL of primers (10 μmol/L), 1 μL of cDNA and 9.5 μL of dH2O). PCR conditions were initial denaturation step of 95 C for 10 minutes, followed by 35 cycles of 95° C. for 30 sec for denaturation; as annealing step 55° C. for 30 sec; and extension at 72° C. for 90 sec, with a final extension of 72° C. for 10 minutes. […]

Assay [2] relates to HT29 colorectal cancer cells. In words: RT-PCR of AREG mRNA in HT29 cells after chemotherapy. The note with it: IC50 dose, 48 hours. The method, then:
FIG. 6 illustrates AREG upregulation following chemotherapeutic challenge in A) HT29, B) HCT116 and C) MDA-MB231 cells. Cells were treated with/without chemotherapy for 48 hours. RT-PCR was performed with 1 μg of total RNA using primer pairs specific for the human AREG gene or GAPDH. The PCR products were separated on 1.5% agarose gel electrophoresis and visualized by ethidium bromide staining.
For Example 2, Total RNA was isolated from cells following the RNA STAT-60 manufacturer's protocol (Biogenesis, Poole, U.K.). RT-PCR was performed with 1 μg of total cell RNA using a Promega ImProm-II™ Reverse Transcription System (Promega, Southhampton, UK). PCR was performed using primer pairs specific for human AREG (Forward 5′-[…]-3′(SEQ ID No:19), Reverse 5′-[…]-3′ (SEQ ID No:20)), human HB-EGF (Forward 5′-[…]-3′(SEQ ID No:21), Reverse 5′-[…]-3′(SEQ ID No:22)), human GAPDH as a control (Forward 5′[…]-3′(SEQ ID No:23), Reverse 5′ […]-3′(SEQ ID NO:24)) and human Beta-actin as a control (Forward 5′-[…]-3′(SEQ ID No:25), Reverse 5′-[…]-3′(SEQ ID No:26)).
The PCR products were separated on 1.5% agarose gel and visualized by ethidium bromide staining.

In assay [3] the test system is RKO +/+. Nature of the assay: Western blot of AREG protein in RKO lysates after chemotherapy. The note with it: RKO p53 wild type lysates; 48 hour treatment. Here is the method: FIG. 2 illustrates western blot analysis of AREG and gamma tubulin protein expression in HCT116 +/+ and RKO +/+ with/without a 48 hour CPT11 or 5-Fu treatment; HCT 116, RKO, HT 29 and H630 are human colorectal carcinoma cell lines. After different time exposure to chemotherapy the cells were harvested, and washed in 1×PBS. The cell pellet was then lysed in a suitable amount of 1×RIPA lysis buffer (150 mM NaCl, 10 mM Tris at pH 7.2, 0.1% SDS, 1.0% triton X-100 and 5 mM.EDTA) supplemented with protease inhibitors. The cell lysate was briefly vortexed, incubated on ice for 10 min and then centrifuged at 12,000 rpm to remove cell debris. Following centrifugation, the lysate supernatant was removed to a fresh eppendorf tube. Protein concentrations were assayed using the BCA Protein Assay (Pierce) according to the manufacturer's instructions. The absorbance of each sample at 620 nm was assayed using a microplate reader. A standard BSA curve was plotted for each experiment and the protein concentration of each sample calculated. To each sample an equal volume of 5× Western sample buffer and 10% of the final volume of β-mercaptoethanol (Sigma) was added. The samples were denatured at 95° C. for 5 minutes and placed on ice prior to loading onto SDS polyacrylamide gel (SDS PAGE). […] Protein bands were detected by exposure to autoradiograph which was subsequently developed. […]
Background: Immunoblotting shows a protein as a band on a membrane.

As for `CCc1c2c(nc3ccc(OC(=O)N4CCC(N5CCCCC5)CC4)cc13)-c1cc3c(c(=O)n1C2)COC(=O)[C@]3(O)CC` [CPT-11, irinotecan], the “AREG RNA expression (RT-PCR)” value with RKO +/+ [1] is listed as “upregulation”. Further, the “AREG mRNA expression (RT-PCR)” value in assay [2] was “up-regulation”. In addition, in the assay on RKO +/+ [3], the “AREG protein expression (western blot)” value is “Enhanced AREG expression”.
